The test system of test [1] is AC16 cells. Kind of test: mRNA levels of fusion and fission markers, quantitative PCR, LPS. The class given is cell-based, human. The protocol: AC16 cells were either left untreated or treated with Liposaccharide (LPS) in the absence or presence of SDG; the levels of DRP1, Opa, MFN1, MFN2, and FIS1 mRNAs were measured in quantitative PCR.
(§1) RNA purification and gene expression analysis—Total RNA was purified from AC16 cells or hearts using the TRIzol reagent according to the instructions of the manufacturer (Invitrogen). DNase-treated RNA was used for cDNA synthesis using the ProtoScript II First Strand cDNA Synthesis Kit (New England Biolabs). Quantitative real-time PCR was performed with the Sybr Select Master Mix (Applied Biosystems). Incorporation of the SYBR green dye into the PCR products was monitored with the Applied Biosystems StepOnePlus Real-Time PCR System. Samples were normalized against mouse 36B4 or human rps13 RNA.

Test [2] relates to ventricular tissue of septic mice. Kind of test: DHE staining of cardiac tissue (ROS). The conditions noted are these: ventricular tissue 12 hours post-CLP, LGM2605 6 h post-CLP. The class given is in vivo, mouse. The protocol:
DHE staining of cardiac tissue—Live myocardium was isolated from mice 12 hours after surgery and sectioned into 10 sections using a clean razor blade. Tissue was stained with 20 μM dihydroethidium (DHE) for 30 minutes at room temperature and imaged on a Zeiss Axio Observer Z1 fluorescent microscope at 490±10 nm excitation and 632±30 nm emission. Oxidized DHE fluoresces red and intercalates DNA. Individual nuclei were measured within each visual field using Zeiss Zen Blue software, and visual fields were averaged to measure mean fluorescence intensity for each mouse.

The test system of test [3] is C57BL/6 mice. Nature of the test: In vivo cardiac adrenergic sensitivity (hemodynamics, isoproterenol). Conditions: 12 h post-CLP, LGM2605 6 h post-CLP. On the set-up: species or system mouse. The protocol:
In vivo cardiac adrenergic sensitivity measurements—Hemodynamics measurements were performed, as published^21. Mice were anesthetized with 2% Tribromoethanol (Avertin). The right carotid artery was cannulated with a 1.4 French micro-manometer (Millar Instruments, Houston, Tex.) and was advanced into LV cavity, measuring LV pressure, LV end-diastolic pressure (LVEDP) and heart rate (HR). These parameters as well as maximal values of the instantaneous first derivative of LV pressure (+dP/dtmax, as a measure of cardiac contractility) and minimum values of the instantaneous first derivative of LV pressure (−dP/dtmin, as a measure of cardiac relaxation) were recorded at baseline and after administration, through the jugular vein, of increasing doses of the β-adrenergic receptor (βAR) agonist, isoproterenol (0.1 ng, 0.5 ng, 1 ng, 5 ng, 10 ng). Data was recorded and analyzed on a PowerLab System (AD Instruments).

In test [4] the test system is ventricular tissue of septic mice. Kind of test: Mitochondrial biogenesis, fusion and fission gene expression in ventricular tissue. The class given is in vivo, mouse. The protocol:
as §1

The subject of test [5] is adenylyl cyclase V/VI. Nature of the test: Adenylyl cyclase V/VI expression (western blot) in CLP mice. The class given is in vivo, mouse. Conditions: SDG following CLP. The protocol:
Mice were either sham treated (n=3) or subjected to cecal ligation puncture (CLP, n=6). SDG was administered to three mice following CLP.
Background: Immunoblotting shows a protein as a band on a membrane.

Test [6] has as its system AC16 cells. Kind of test: Mitochondrial membrane potential (TMRM staining) in AC16 cells. The class given is cell-based, human. As for the experimental part: To measure mitochondrial membrane potential, AC16 cells were stained with TMRM (62.5 nM, T668, Molecular Probes) for 30 minutes in the dark. TMRM stain was washed in warm PBS three times and imaged at 200× magnification using the Cy3 filter (510 nm excitation wavelength).

The test system of test [7] is β adrenergic receptors. Kind of test: Radioligand binding assay for cardiac β-AR density. Conditions: hearts 12 h post-CLP, LGM2605 6 h post-CLP. The class given is in vivo, mouse. The protocol: Radioligand binding assay—Plasma membranes from excised mouse hearts were prepared, and saturation radio-ligand binding was performed as described previously, using ^125I-CYP (iodocyanopindolol; PerkinElmer, Waltham, Mass.) for β-AR density measurement. Data were analyzed by nonlinear regression analysis using GraphPad Prism (GraphPad Software, La Jolla, Calif.).

Test [8] concerns cardiac tissue isolated from septic mice. Nature of the test: Autophagy markers (LC3BII/LC3BI, Map1lc3b, BNIP3) in cardiac tissue. The class given is in vivo, mouse. As for the experimental part: as §1
Protein purification and analysis—Isolated heart tissue or AC16 cells were homogenized in radioimmune precipitation assay buffer containing protease and phosphatase inhibitors (Pierce Protease and Phosphatase Inhibitor Mini Tablets, Thermo Scientific). 30-50 μg of total protein extract was applied to SDS-PAGE and transferred onto nitrocellulose membranes.

A short description of test [9]: Plasma glucose and triglyceride levels in septic mice. The class given is in vivo, mouse.
For test [10], the system named is ventricular tissue of septic mice. Nature of the test: Glucose and fatty-acid metabolism related gene expression in ventricular tissue. The class given is in vivo, mouse. As for the experimental part:
as §1

Test [11] shares this test system. Nature of the test: Antioxidant-related gene expression in ventricular tissue. The class given is in vivo, mouse. The conditions noted are these: ventricular tissue 12 hours after CLP. As for the experimental part: as §1
Where [12] appears, read: ventricular tissue 12 hours after CLP.

From patent US20210128596A1, “COMPOSITIONS AND METHODS FOR TREATING SEPTIC CARDIOMYOPATHY” (UNIVERSITY OF PENNSYLVANIA, priority 2017, published 2021) come the findings set out here.

Consider `COc1cc(C[C@@H](CO[C@@H]2O[C@H](CO)[C@@H](O)[C@H](O)[C@H]2O)[C@H](CO[C@@H]2O[C@H](CO)[C@@H](O)[C@H](O)[C@H]2O)Cc2ccc(O)c(OC)c2)ccc1O` [LGM2605, secoisolariciresinol diglucoside], for which the “levels of DRP1, Opa, MFN1, MFN2, and FIS1 mRNAs” value in test [1] (6-hour LPS treatment (FIG. 8A)) is “restored the levels of all the markers”; in test [1] (12 hour LPS treatment (FIG. 8B)), “restored the levels of all the markers, although only the change in MFN2 levels was statistically significant”. In addition, the “ROS accumulation (DHE staining intensity)” value in test [2] is “alleviated significantly by LGM2605 administration”; in [2] (listed as SDG), “reduced ROS accumulation”. The responsiveness to isoproterenol entry in test [3] is on record as “less robust in both septic groups regardless of LGM2605 treatment”. The “basal LVdP/dtmax and LVdP/dtmin” value in test [3] (compared to sham surgery) is “lower basal myocardial LVdP/dtmax (FIG. 14B) and LVdP/dtmin (FIG. 14C) with or without LGM2605 administration”. In addition, the “mitochondrial biogenesis markers PGC1α, PGC1β, mtTFA gene expression” value in test [4] (ventricular tissue 12 hours post-CLP) is given as “None of these changes was affected by LGM2605”. Moreover, the “MFN1, MFN2, DRP1, and FIS1 expression” value in test [4] (ventricular tissue 12 hrs after CLP) was “restored the CLP-mediated changes in MFN1, MFN2, DRP1, and FIS1 expression”. Further, in [5], the “adenylyl cyclase V/VI expression (AC/GAPDH ratio)” value is given as “restores cyclase V/VI expression pre-CLP levels”. Besides, the “TMRM staining (mitochondrial membrane potential)” value in test [6] (LGM2605 with 50 μM 2,4-DNP, with or without LPS) is reported as “lost its beneficial effect in restoring TMRM staining”; in test [6] (LPS and LGM2605 12 hours), “significantly restored TMRM staining toward baseline”. Further, the “cardiac β-AR density” value in test [7] was “not reversed by treatment with LGM2605”. For the same compound, in test [8] (cardiac tissue from septic mice), the “autophagy markers (LC3BII/LC3BI ratio; Map1lc3b and BNIP3 mRNA)” value is given as “Neither marker was alleviated by LGM2605”. Further, the “expression of the mitochondrial damage marker BNIP3” value in test [8] (septic mice following LGM2605 administration) is “trend for reduced expression of the mitochondrial damage marker BNIP3”. Besides, the plasma glucose levels entry in test [9] (6 hours and 12 hours post-CLP) is given as “hypoglycemia in septic mice was not alleviated by the administration of LGM2605”. The plasma triglyceride levels entry in test [9] (12 hours after surgery) was “trend of increase, which did not occur in septic mice treated with LGM2605”. For the same compound, the “expression of fatty acid oxidation and glucose metabolism-related genes” value in test [10] (CLP mice treated with SDG) was “did not restore the expression of fatty acid oxidation and glucose metabolism-related genes”. Further, the “PPARα and LCAD expression” value in [10] (setting [12]) is “did not reverse the CLP-mediated changes in the PPARα and LCAD”. Moreover, in test [10] (setting [12]), the “cardiac PDK4 mRNA levels” value was “This increase was not alleviated by administration of LGM2605”. In addition, in test [11], the “cardiac expression of antioxidant genes (NRF2, HO1, GSTM1, NQO1, UCP2, UCP3)” value was “not accompanied by prevention of the CLP-mediated changes in cardiac expression of antioxidant genes”.
